Experimental data: EP4696306A1, “ADENOSINE TRIPHOSPHATE SECRETION INHIBITOR, HEPATIC STELLATE CELL ACTIVATION INHIBITOR, HEPATIC STELLATE CELL DEACTIVATOR, HEPATIC FIBROSIS THERAPEUTIC AGENT, NON-ALCOHOLIC STEATOHEPATITIS THERAPEUTIC AGENT, PSORIASIS THERAPEUTIC AGENT, AND USE OF COMPOUND FOR PRODUCING ADENOSINE TRIPHOSPHATE …” (KURUME UNIVERSITY, priority 2023, dated 2024)

What was measured:
[1] = tested on: imiquimod-induced psoriasis; assay: Imiquimod-induced psoriasis model; format: in vivo, mice; details: for auricular thickening and psoriatic symptoms: Example 21, N = 2
Description: Experimental psoriatic symptoms were induced in a mouse auricle by imiquimod. Six-week-old male C57BL/6 mice (N = 5) were acclimated for one week. On Days 1 to 7, 62.5 mg of 5% imiquimod cream (Beselna Cream 5%) (3.125 mg in terms of the active ingredient, manufactured by Mochida Pharmaceutical Co. Ltd.) was applied to the right auricle of the mice for 7 consecutive days (IMQ group). Once daily after the imiquimod application, the imeglimin administration group (IMQ + IMG group) received oral administration, at 40 mg/kg, of 500-mg Twymeeg (trademark) tablets (manufactured by Sumitomo Pharma Co. Ltd.) dissolved in physiological saline. The control group received an equal volume of physiological saline. On Day 8, the mice were euthanized by cervical dislocation, and auricle thickness was measured using a dial thickness gauge (manufactured by Adachi Sogyo Co., Ltd.).
Each excised mouse auricle was fixed in 4% paraformaldehyde at 4°C overnight. After ethanol substitution, the auricle was embedded in paraffin, sectioned using a rotary microtome Leica RM2165 (thickness, […]), and subjected to HE staining or immunohistochemical staining. For the immunohistochemical staining, the sections were deparaffinized, washed in xylene, and rehydrated through graded alcohols. The sections were incubated in DAKO at 95°C for 30 minutes. The sections were blocked at room temperature for 60 minutes and then incubated at room temperature for 2 hours to allow reaction with a TGM1 anti-rabbit polyclonal antibody (catalog number 12912-3-AP, manufactured by Proteintech). The sample was washed and then allowed to react with a secondary antibody (Alexa 544-conjugated secondary antibody (goat anti-rabbit IgG) (manufactured by Molecular Probes)) at room temperature for 60 minutes. After allowing reaction with DAPI at room temperature for 10 minutes, the sections were mounted with Fluoromount and imaged using a fluorescence microscope (BZ-X710, manufactured by Keyence).
The dorsal hair of mice was shaved and depilated (Day 0). To each of the left auricle and the depilated back of each mouse, 62.5 mg of 5% imiquimod cream (Beselna Cream 5%) was applied once daily a total of seven times (Days 1 to 7) in accordance with Example 18, to induce imiquimod-induced psoriasis (IMQ group). In the IMQ + IMG group, mice received oral administration of imeglimin (40 mg/kg) once daily (Day 1 to 7) after the imiquimod application. […] Thickness of the auricle was measured, and the degrees of erythema, desquamation, and infiltration in the affected area were rated on Days 1, 3, 5, 7, and 8 according to the PASI scoring of the DermNET Dermatology Resource (none: 0, mild: 1, moderate: 2, severe: 3, and very severe: 4). The resulting values were used to calculate the PASI score.
Further, for an auricle excised on Day 8, immunohistochemical staining was performed in the same manner as in Example 18, and auricular sections were imaged using a fluorescence microscope (BZ-X710; manufactured by Keyence Corporation).
On Days 1, 2, 3, 5, and 6, 62.5 mg of 5% imiquimod cream (Beselna Cream 5%) was applied to auricles of wild-type mice (IMQ) or VNUT knockout mice (VNUT KO + IMQ) to induce psoriatic symptoms. […] For a negative control, only 20% glycerin solution was applied. In IMQ + 1% IMG and IMQ + 0.1% IMG, 20% glycerin solution supplemented with 1% (w/v) imeglimin and 0.1% (w/v) imeglimin, respectively, was applied immediately after the imiquimod application. Further, in IMQ + 1% Clo and IMQ + 0.1% Clo, 20% glycerin solution supplemented with 1% (w/v) clodronate and 0.1% (w/v) clodronate, respectively, was applied immediately after the imiquimod application.

[2] = tested on: THP-1 cells; assay: LPS-stimulated ATP secretion in macrophages differentiated from THP-1 cells; format: cell-based, human; details: 10 µM; LPS 10 µg/ml 10 minutes; N = 10
Description: Human acute monocytic leukemia cells (THP-1 cells (ACTT)) were cultured in accordance with Reference D. THP-1 cells were cultured in RPMI1640 medium supplemented with 10% fetal bovine serum (FBS), 100 units/ml penicillin, and 100 µg/ml streptomycin at 37°C in 5% CO2 for 1 day. Further, THP-1 cells were cultured in RPMI1640 medium supplemented with 1 µg/ml Escherichia coli scrotype 055:B5 (manufactured by Sigma-Aldrich) and 1000 units/ml mouse IFN-γ (manufactured by R&D Systems) at 37°C in 5% CO2 for 1 day, to allow differentiation into macrophages.
The differentiated macrophages were cultured in RPMI1640 medium supplemented with 1 mg/ml Escherichia coli scrotype 055:B5 (manufactured by Sigma-Aldrich) and 1000 units/ml mouse IFN-γ (manufactured by R&D Systems) at 2.5 × 10^4 cells/well in a 24-well plate at 37°C in 5% CO2 for 4 days. The medium was replaced with HBSS (manufactured by Gibco) supplemented with imeglimin or clodronate), and then LPS (10 µg/ml) was added thereto, followed by further performing incubation for 10 minutes and then collection of 200 µl of the supernatant. The supernatant was immediately treated on a heat block at 95°C for 10 minutes, and ATP in the supernatant was quantified using an ATP assay kit - Luminescence (manufactured by Dojindo) (N = 10).

Structure (SMILES)	auricular thickening and psoriatic symptoms ([1]; topical 20% glycerin solution with 0.1% (w/v) clodronate)	auricular thickening and psoriatic symptoms ([1]; topical 20% glycerin solution with 1% (w/v) clodronate)	ATP secretion upon LPS stimulation [2]	epidermal desquamation and psoriatic symptoms of the auricle ([1]; Example 18, oral 40 mg/kg once daily, Days 1 to 7 (Twymeeg tablets dissolved in saline), N = 5)	auricle thickening induced by imiquimod ([1]; Example 18, oral 40 mg/kg once daily, Days 1 to 7, N = 5)	typical psoriatic symptoms (auricular thickness, desquamation, infiltration, PASI score), except erythema ([1]; Example 19, imeglimin 40 mg/kg orally once daily Day 1 to 7, N = 5)	effect compared with infliximab ([1]; Example 19, imeglimin 40 mg/kg orally versus infliximab 100 µg/mouse i.v.)	auricular thickening and psoriatic symptoms ([1]; topical 20% glycerin solution with 0.1% (w/v) imeglimin)	auricular thickening and psoriatic symptoms ([1]; topical 20% glycerin solution with 1% (w/v) imeglimin)
O=P(O)(O)C(Cl)(Cl)P(=O)(O)O [clodronate]	the degree of auricular thickening was improved	the degree of auricular thickening was improved	strongly inhibited						
C[C@H]1N=C(N(C)C)N=C(N)N1 [imeglimin]			strongly inhibited	eliminated epidermal desquamation and reduced the psoriatic symptoms	suppressed	reduced	almost equivalent, or imeglimin was more effective	no effect	the degree of auricular thickening was improved
